Reference: patent publication US12576015B2, “Antimicrobial mixture containing 4-(3-ethoxy-4-hydroxyphenyl)butan-2-one and an alcohol compound, and cosmetic composition containing same” (L'OREAL, priority 2018, dated 2026)

Test system: Aspergillus niger ATCC 6275
Assay: Microplate growth inhibition / MIC and FIC index (synergy) test, optical density at 620 nm
Type: cell-based
Conditions: for microbial growth percentage: 0 A
Excerpt: 1] with: • MIC of A with B: minimum concentration of product A in the combination A+B which makes it possible to obtain an inhibitory effect; • MIC of B with A: minimum concentration of product B in the combination A+B which makes it possible to obtain an inhibitory effect; • MIC of A: minimum inhibitory concentration of product A alone; • MIC of B: minimum inhibitory concentration of product B alone.
When the FIC index value is less than or equal to 1, it is considered that the combination of test compounds has a synergistic effect.
The microbial strain Aspergillus niger ATCC 6275, and a double-concentration Sabouraud broth liquid culture medium supplemented with polyoxyethylenated (20 EO) sorbitan monopalmitate (Tween 40 from Croda) and Phytagel© BioReagent were used (i.e. a mixture of 5 g of Phytagel+0.6 g of Tween 40+60 g of Sabouraud broth).
A 96-well microplate at an incubation temperature of 32.5° C. is used.
The incubation time of the microplate is: • from 24 to 30 h under aerobic conditions for microbial Aspergillus niger ATCC 6275; • from 18 to 24 h under aerobic conditions for Candida albicans ATCC 10231, Pseudomonas aeruginosa ATCC 9027 and Staphylococcus aureus ATCC 6538; Tests
A 10% (weight/volume) stock solution was prepared by mixing 1 g of compound in 9 ml of aqueous 1%0 agar solution. Successive dilutions were made with the 1%0 agar solution.
50 μl of each of the daughter solutions obtained containing compound A or B are added to the microplate wells. 100 μl of Sabouraud liquid nutrient broth inoculated at double concentration with the Aspergillus niger strain and 50 μl of aqueous 1%0 agar solution are also added thereto.
50 μl of each of the daughter solutions obtained containing compound A and 50 μl of each of the daughter solutions obtained containing compound B are added to the microplate wells. 100 μl of Sabouraud liquid nutrient broth inoculated at double concentration with the strain Aspergillus niger are also added thereto.
A positive microbial growth control was also prepared. The positive microbial growth control corresponds to the mixture of 100 μl of aqueous 1%0 agar solution with 100 μl of Sabouraud liquid nutrient broth inoculated at double concentration with the strain Aspergillus niger in the absence of compounds A and B.
An absorbance control was performed in parallel on compounds A and B alone. This control corresponds to 100 μl of double concentration sterile Sabouraud liquid nutrient broth+100 μl of double concentration compound A or B.
In the three cases (absorbance control, growth control and test), the final volume present in each of the microplate wells is 200 μl.
In the two cases (test and control), the inoculum represents the concentration of the Aspergillus niger strain present in the final volume of the wells (200 μl) and is between 2 and 6×10^5 cfu/ml of Aspergillus niger.

Q: What does the source list for CC(=O)c1ccc(O)cc1 [B, 4-hydroxyacetophenone]?
A: microbial growth percentage (0.0625 weight % B): 86%; microbial growth percentage (0.125 weight % B): 72%; microbial growth percentage (0.25 weight % B): 79%; microbial growth percentage (0.5 weight % B): 6%; % MIC of B alone (first concentration giving growth <= 25%): 0.5%
